In brackets after ≈: the same amount, converted by molar mass. Like-named read-outs stand apart in the source and are kept apart here.
Assays:
Assay type in all cases: cell-based
[1] = test system: E. coli K12 wt; assay: MIC, standard broth microdilution assay; settings: LB broth, 10^5 cells per well, 1 mM IPTG
Description: (§1) The ASKA strains of interest are validated for functional expression of the enzyme. If the protein is not expressed from a given expression vector the ORF is recloned. A strain overexpressing the activating enzyme from the ASKA library is then tested with the hit compound. If the hit has greater activity against this overexpressing strain as compared to the wild type, this indicates a prodrug. The test is performed in a standard broth microdilution assay for MIC determination. Hits with the lowest wild type MIC are then examined.
(§2) Cells were tested in a standard broth microdilution assay, inoculating 10^5 cells per well of a microtiter plate in LB broth. Overexpression and deletion strains were compared to the appropriate isogenic wild type. IPTG was added at 1 mM to growth medium. Experiments involving nfnB and nfsA strains were performed under anaerobic conditions.

[2] = test system: E. coli K12 overexpressing activating enzyme; assay: MIC, standard broth microdilution assay, overexpression strains
Description: as §1, §2

[3] = test system: E. coli K12 Δactivating enzyme; assay: MIC, standard broth microdilution assay, deletion strains
Description: as §1, §2

[4] = test system: E. coli K12 ΔtolC overexpressing activating enzyme; assay: MIC, standard broth microdilution assay, tolC deletion (MDR efflux)
Excerpt: Prodrugs are activated by activating enzymes into reactive molecules that bind to their targets, creating an irreversible sink. This may lead to insensitivity of the overall process to MDR efflux. In order to test this possibility, an E. coli K12 with a deletion in tolC coding for the outer membrane porin that is a component of the transenvelope MDRs was utilized (Li (2004) Drugs 64:159-204). This strain is highly sensitive to antibiotics (Tegos et al. (2002) Antimicrob. Agents Chemother. 46:3133-3141). […] The substrate specificity of AcrAB is remarkably broad, and includes essentially all small molecular weight amphipathic compounds. The AcrAB substrates include anions (SDS, fatty acids, bile acids), neutral compounds (macrolides, chloramphenicol, tetracyclines) and cations or compounds that can form cations (acridine, quaternary compound antiseptics, fluoroquinolones). AcrAB can extrude a natural broad spectrum antibiotics that evolved for good penetration, chloramphenicol and tetracycline; and also extrude synthetic broad-spectrums, the fluoroquinolones.
as §2

[5] = test system: wild type (WT) E. coli; assay: MIC, validation of screen hits
Description: (§3) To validate the screening, the activity of nitazole against strains with nitrate reductases deleted and in strains overexpressing nitrate reductases were tested. A prodrug activated by a nitrate reductase has lower activity against a strain lacking the enzyme, and a higher activity in an overexpression strain, as compared to a wild type. E. coli has two known […], NfnB and NfsA. Strains tested were wild type (WT) E. coli, two knockout strains lacking the 2 nitroreductases (NfnB−; NfsA−), and against two strains overexpressing the same enzymes (NfnB+ and NfsA+). MIC values for nitazole are shown below.

[6] = test system: E. coli knockout strains lacking the 2 nitroreductases (NfnB−; NfsA−); assay: MIC, validation of screen hits, knockout strains
Description: as §3

[7] = test system: E. coli strains overexpressing NfnB+ and NfsA+; assay: MIC, validation of screen hits, overexpression strains
Description: as §3

[8] = test system: E. coli K12 knockout pool (BacPool) and wild type; assay: Prodrug screen, growth/no growth of BacPool knockout mix versus wild type; settings: compounds at about 46-50 μg/ml, OD600 after overnight incubation
Excerpt: A complete, ordered E. coli K12 knockout library of 4320 genes and predicted ORFs (the Keio library) was used (Baba et al. (2006). Mol. Systems Biol. 2:2006.0008). The knockouts were constructed using the Wanner method with a kanamycin cassette replacing the ORFs (Datsenko et al. (2000) Proc. Natl. Acad. Sci. USA 97:6640-6645). All strains of this library were combined in a mix BacPool1) for screening. This permitted screening of the library against all strains simultaneously, instead of screening a full industry-size library against each of the individual E. coli 4×10^3 knockout strains.
The library mix was prepared by first culturing all strains overnight in LB medium, and then adding equal aliquots into a tube. This material was then mixed, dispensed in vials and stored at −80° C. For the screen, one vial was thawed, diluted to 10^5 cells/ml in LB, and dispensed into 384 well microtiter plates. The compounds were added from DMSO stocks at a final concentration of 46 μg/ml. The same compounds were added to plates containing the wild type isogenic control. Screening was performed at the Harvard NSRB/NERCE screening facility that host a collection of 150,000 compounds (see Tables 1A and 1B). All screens at NSRB/NERCE were performed in duplicate, which strongly decreases the rate of false positives and negatives. For each tested molecule there are three possible scenarios when scoring for growth/no growth:
Growth in both the BacPool and K12 wells: indicates lack of antimicrobial activity;
Growth inhibition in both the BacPool and K12 wells: a possible antibiotic (direct activity) or generally toxic compound is present, but is not a prodrug; or
Growth of a BacPool well and no growth of the K12 well: a prodrug hit.
After an overnight incubation of plates at 37° C., the plates were read at OD600. Compounds that had no effect on the growth of the mix and inhibited the growth of the wild type were recorded as hits. The wells with growth indicated a prodrug hit that is not converted into a drug by a particular deletion mutant in the mix. The mutant strain is then identified in a secondary screen (see Example 2).
Yet another screen was performed on 147,500 compounds, using the protocol described below. […]
An E. coli KanR culture was grown in LB broth containing 50 μg/ml Kanamycin for 20 hrs at 37° C. in a shaking incubator. […] The plates were then incubated for 20 hrs at 37° C., and then the plates were read for Optical Density at 600 nm and were scored for growth/no growth. […]
Hits were identified by calculating the % of inhibition of growth of E. coli measured by OD600. The data were analyzed as follows: negative controls (N), positive controls (P), and compounds (X) ODs were separately averaged and the resulting means were used to calculate % of inhibition of E. coli growth: […]

[9] = test system: P. aeruginosa; assay: Killing of logarithmic, stationary and biofilm cultures, colony count
Description: Persister cells in planktonic and biofilm populations are characterized for their antibiotic sensitivity in this example. Several bactericidal antimicrobials were chosen to test the resistance of P. aeruginosa to killing—ofloxacin, a fluoroquinolone; tobramycin, an aminoglycoside; carbenicillin, a β-lactam; and peracetic acid, a disinfectant oxidant (Spoering et al. (2001) J. Bacteriol. 183:6746-6751). Biofilms were grown essentially by the method of Ceri (Ceri et al. (1999) J. Clin. Microbiol. 37:1771-1776) and as described in Brooun et al. (2000) Antimicrob. Agents Chemother. 44:640-646. The device used for biofilm formation is a platform carrying 96 polystyrene pegs that fit in a microtiter plate. Preformed biofilms were incubated in the presence of an antimicrobial agent, and survival was measured after disrupting the biofilms by colony count.
Logarithmic state, stationary and biofilm cultures were challenged with carbenicillin. Carbenicillin is a bactericidal antibiotic that, similarly to most β-lactams, only kills rapidly growing cells (Tuomanen et al. (1986) Scand. J. Gastroenterol. Suppl:10-14). […] The amount of killing of logarithmic cells approached a plateau at concentrations above 1.67×MIC, indicating the presence of a persister subpopulation. These 0.1% cells in the rapidly growing logarithmic culture were invulnerable to killing by carbenicillin at 600 μg/ml.
Unlike carbenicillin, ofloxacin can kill non-growing cells (Brooun et al. (2000) Antimicrob. Agents Chemother. 44:640-646). Logarithmic, stationary and biofilm cultures were challenged with ofloxacin over a wide range of concentrations, from 1×MIC (0.5 μg/ml) to 30×MIC (15 μg/ml). After a 6 hrs incubation time with the antibiotic, viability was determined by colony count. The majority of cells in the three populations examined were killed at low concentrations of ofloxacin (FIG. 3B). The killing in all three cultures was distinctly biphasic, indicating the presence of persister cells. The levels of persisters were dramatically higher in the dense stationary planktonic and biofilm cultures as compared to logarithmic cells. […] At 5 μg/ml ofloxacin, which is the clinically achievable concentration (Schulz et al. (1997) Pharmazie 52:895-911), the percentage of live cells was 0.001% in the logarithmic population, 0.1% in the biofilm and 2.5% in the stationary culture (FIG. 3B).
Tobramycin at 50 μg/ml (the maximal clinically achievable concentration is 10 μg/ml), (Schulz et al. (1997) Pharmazie 52:895-911) eliminated 90% of the biofilm cells, and the remaining population declined gradually with increasing amounts of the antibiotic. At high concentrations surviving persisters became apparent. Tobramycin was ineffective against stationary planktonic cells, apparently due to the dependence of killing of growth.
Peracetic acid, an oxidizing disinfectant, was used in order to test the ability of a sterilizing agent to act against persisters. […] Similar results showing biphasic killing, and high level of persisters in stationary and biofilm populations, also were obtained with S. aureus and E. coli (Keren et al. (2004) FEMS Microbiol. Lett. 230:13-18).

[10] = Escherichia coli, K12WT, read-out: MIC
[11] = Escherichia coli, read-out: MIC
[12] = nfsA^+ overexpressing strain, 1 mM IPTG, anaerobic conditions
[13] = ΔtolC, nfnB^+ overexpressing strain
[14] = ΔtolC, nfsA^+ overexpressing strain
[15] = nfnB^+ overexpressing strain, 1 mM IPTG, anaerobic conditions
[16] = nfnB^− deletion strain, anaerobic conditions
[17] = nfsA^− deletion strain, anaerobic conditions

## Nc1nc(O)ncc1F [5-fluorocytosine, 5-Fluorocytosine]
[1]; [10]
  MIC: > 2500 µg/mL
[2]; Escherichia coli
  MIC: 625 µg/mL (≈ 4840 µM)
[3]; Escherichia coli, codA^− deletion strain
  MIC: > 2500 µg/mL
[4]; Escherichia coli
  MIC: 625 µg/mL (≈ 4840 µM)

## CC(=O)Nc1ncc([N+](=O)[O-])s1 [nitazole, Acetamide, N-(5-nitro-2-thiazolyl)-(8CI,9CI)]
[5]; [11]
  MIC: 12.5 µg/mL (≈ 66.8 µM)
[6]; Escherichia coli
  MIC: 25 µg/mL (≈ 134 µM)
[6]; NfsA−
  MIC: 25 µg/mL (≈ 134 µM)
[7]; Escherichia coli, NfnB+
  MIC: 1.6 µg/mL (≈ 8.55 µM)
[7]; Escherichia coli, NfsA+
  MIC: 6.3 µg/mL (≈ 33.7 µM)
[8]
  screen outcome (prodrug hit / direct activity): prodrug hits

## Nc1nc(F)nc2c1ncn2[C@@H]1O[C@H](CO)[C@@H](O)[C@@H]1O [Fludarabine]
[1]; [10]
  MIC: > 500 µg/mL
[2]; Escherichia coli
  MIC: 125 µg/mL (≈ 438 µM)
[3]; Escherichia coli, deoD^− deletion strain
  MIC: > 500 µg/mL
[4]; Escherichia coli
  MIC: 125 µg/mL (≈ 438 µM)

## CC[C@H]1OC(=O)[C@H](C)[C@@H](O[C@H]2C[C@@](C)(OC)[C@@H](O)[C@H](C)O2)[C@H](C)[C@@H](O[C@@H]2O[C@H](C)C[C@H](N(C)C)[C@H]2O)[C@](C)(O)C[C@@H](C)C(=O)[C@H](C)[C@@H](O)[C@]1(C)O [Erythromycin]
[1]; [10]
  MIC: 200 µg/mL (≈ 273 µM)
[2]; Escherichia coli
  MIC: 200 µg/mL (≈ 273 µM)
[2]; codA^+ overexpressing strain, 1 mM IPTG
  MIC: codA^+ 200 μg/ml
[2]; deoD^+ overexpressing strain, 1 mM IPTG
  MIC: deoD^+ 200 μg/ml
[2]; [12]
  MIC: nfsA^+ 200 μg/ml
[4]; Escherichia coli
  MIC: 1.56 µg/mL (≈ 2.13 µM)
[4]; ΔtolC, codA^+ overexpressing strain
  MIC: codA^+ 1.56 μg/ml
[4]; ΔtolC, deoD^+ overexpressing strain
  MIC: deoD^+ 1.56 μg/ml
[4]; [13]
  MIC: nfnB^+ 1.56 μg/ml
[4]; [14]
  MIC: nfsA^+ 1.56 μg/ml

## NC(=O)c1cc(N2CC2)c([N+](=O)[O-])cc1[N+](=O)[O-] [Dinitroaziridinylbenzamide (CB1954), Dinitroaziridinylbenzamide]
[1]
  MIC: >200 µg/mL
[2]; [15]
  MIC: nfnB^+ 3.3 μg/ml
[2]; [12]
  MIC: nfsA^+ 6.3 μg/ml
[3]; [16]
  MIC: nfnB^− > 200 μg/ml
[3]; [17]
  MIC: nfsA^− > 200 μg/ml
[4]; [13]
  MIC: nfnB^+ 3.3 μg/ml
[4]; [14]
  MIC: nfsA^+ 6.3 μg/ml

## CC(=O)OO [Peracetic acid]
[9]; logarithmic, stationary and biofilm cultures
  sterilization of cultures: all cultures were sterilized

## S=C(Nc1cccc(Cl)c1)Nc1cccc(Cl)c1 [PD18, thiourea, N,N′-bis(3-chlorophenyl)-(9CI)]
[5]; [11]
  MIC: 25 µg/mL (≈ 84.1 µM)
[8]
  screen outcome (prodrug hit / direct activity): prodrug hits

## benzoxazole, 2,3-dihydro-5-nitro-2-(5-nitro-2-thienyl)-(9CI)
[5]
  MIC: 12.5 µg/mL
[6]; NfnB−
  MIC: 25 µg/mL
[6]; NfsA−
  MIC: 25 µg/mL
[7]; NfnB+
  MIC: 3.1 µg/mL
[7]; NfsA+
  MIC: 6.3 µg/mL
[8]
  screen outcome (prodrug hit / direct activity): prodrug hit

## NC(=O)c1cc([N+](=O)[O-])cc([N+](=O)[O-])c1 [3,5-Dinitrobenzamide]
[1]
  MIC: 250 µg/mL (≈ 1180 µM)
[2]; [15]
  MIC: nfnB^+ 15.6 μg/ml
[2]; [12]
  MIC: nfsA^+ 7.8 μg/ml
[3]; [16]
  MIC: nfnB^− > 500 μg/ml
[3]; [17]
  MIC: nfsA^− > 500 μg/ml
[4]; [13]
  MIC: nfnB^+ 15.6 μg/ml
[4]; [14]
  MIC: nfsA^+ 7.8 μg/ml

## CC1(C)S[C@@H]2[C@H](NC(=O)C(C(=O)O)c3ccccc3)C(=O)N2[C@H]1C(=O)O (stereo partly drawn) [carbenicillin]
[9]; biofilm
  killing of biofilm cells: resistant to killing
[9]; logarithmic cells
  concentration at which the majority of logarithmic cells were killed: 1.67 ×MIC
[9]; rapidly growing logarithmic culture, 600 μg/ml
  cells invulnerable to killing (persister subpopulation): 0.1%
[9]; stationary planktonic cells
  killing of stationary cells: little killing

Reference: patent US20110046142A1, “ANTIBIOTIC COMPOUNDS” (priority 2007, published 2011)
